Results reported in patent US11634701B2, “Metabolic pathways with increased carbon yield” (TOTAL RAFFINAGE CHIMIE, priority 2018, dated 2023).
pKi: −log10 of the molar value. Read-outs that look alike come from different tables or passages of the source.

Tests used:
[1] = test system: C. acetobutylicum Fba (fructose-1,6-bisphosphate aldolase); settings: measured experimentally or estimated from literature, cited from earlier work
[2] = test system: C. acetobutylicum Tpi (triose phosphate isomerase); settings: measured experimentally or estimated from literature, cited from earlier work
[3] = test system: C. acetobutylicum Tkt′ (transketolase, second reaction); settings: measured experimentally or estimated from literature, cited from earlier work
[4] = test system: C. acetobutylicum Tal (transaldolase); settings: measured experimentally or estimated from literature, cited from earlier work
[5] = test system: C. acetobutylicum Fba (fructose-1,6-bisphosphate aldolase); experiment: Kinetic parameters of C. acetobutylicum NOG enzymes (Fba); type: biochemical; settings: measured experimentally or estimated from literature; read-out: Kms
Protocol: (§1) The kinetic parameters of C. acetobutylicum enzymes involved in the NOG pathway were measured experimentally or estimated from literature (Table 1) and compiled in a COPASI toolbox for kinetic simulations.

[6] = test system: C. acetobutylicum Fbp (fructose-1,6-biphosphatase); experiment: Kinetic parameters of C. acetobutylicum NOG enzymes (Fbp); type: biochemical; settings: measured experimentally or estimated from literature
Protocol: as §1

[7] = test system: C. acetobutylicum Tkt (transketolase); settings: measured experimentally or estimated from literature, cited from earlier work
[8] = test system: C. acetobutylicum Rpi (ribose-5-phosphate isomerase); settings: measured experimentally or estimated from literature, cited from earlier work
[9] = test system: C. acetobutylicum Rpe (ribulose-3-phosphate epimerase); settings: measured experimentally or estimated from literature, cited from earlier work
[10] = molecular target: T1, C. acetobutylicum Xpk (xylulose-5-phosphate phosphoketolase) (Clostridium acetobutylicum, UniProt Q97JE3); experiment: Kinetic parameters of C. acetobutylicum NOG enzymes (Xpk); type: biochemical; settings: measured experimentally or estimated from literature
T1 sequence (Q97JE3 1-796): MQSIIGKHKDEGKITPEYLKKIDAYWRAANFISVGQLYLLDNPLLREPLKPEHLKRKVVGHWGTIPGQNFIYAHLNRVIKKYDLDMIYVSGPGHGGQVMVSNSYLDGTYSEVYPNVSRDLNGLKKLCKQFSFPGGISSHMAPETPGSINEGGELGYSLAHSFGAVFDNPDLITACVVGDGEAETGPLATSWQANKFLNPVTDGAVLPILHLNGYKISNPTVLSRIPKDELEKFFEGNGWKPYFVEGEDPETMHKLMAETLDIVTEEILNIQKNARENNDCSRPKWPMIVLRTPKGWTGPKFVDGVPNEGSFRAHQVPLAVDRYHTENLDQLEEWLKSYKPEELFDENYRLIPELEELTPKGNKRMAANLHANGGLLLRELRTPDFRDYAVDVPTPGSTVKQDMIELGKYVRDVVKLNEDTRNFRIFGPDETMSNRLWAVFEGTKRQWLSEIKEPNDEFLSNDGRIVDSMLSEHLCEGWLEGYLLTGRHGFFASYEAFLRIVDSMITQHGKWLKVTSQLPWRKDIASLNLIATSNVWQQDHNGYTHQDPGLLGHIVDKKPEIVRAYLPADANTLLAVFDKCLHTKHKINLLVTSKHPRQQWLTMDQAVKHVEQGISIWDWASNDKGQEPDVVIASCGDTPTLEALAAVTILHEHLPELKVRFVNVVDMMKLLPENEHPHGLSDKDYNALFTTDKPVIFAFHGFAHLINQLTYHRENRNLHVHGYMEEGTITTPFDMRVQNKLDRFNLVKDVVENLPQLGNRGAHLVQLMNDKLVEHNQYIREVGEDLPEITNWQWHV
Protocol: as §1

SMILES: O=C(CO)COP(=O)(O)O [dihydroxyacetone phosphate]
- Km ([1]; read-out: Kmp): 2000 µM
- Km ([2]; read-out: Kms): 6450 µM

SMILES: O=C[C@H](O)[C@H](O)COP(=O)(O)O [erythrose-4-phosphate]
- Km ([3]; read-out: Kma): 946 µM
- Km ([4]; read-out: Kmq): 362 µM

SMILES: O=P(O)(O)OC[C@H]1OC(O)(COP(=O)(O)O)[C@@H](O)[C@@H]1O (stereo partly shown) [fructose-1,6-bisphosphate]
- Km [5]: 1140 µM
- Km [6]: 63 µM

SMILES: O=P(O)(O)OC[C@H]1OC(O)(CO)[C@@H](O)[C@@H]1O (stereo partly shown) [fructose-6-phosphate]
- Km ([3]; read-out: Kmp): 1100 µM
- Km ([4]; read-out: Kmp): 1440 µM

SMILES: O=C[C@H](O)COP(=O)(O)O [glyceraldehyde-3-phosphate]
- pKi ([1]; read-out: Kip): 2.00
- Km ([1]; read-out: Kmq): 2400 µM
- Km ([3]; read-out: Kmq): 100 µM
- Km ([2]; read-out: Kmp): 5250 µM
- Km ([4]; read-out: Kma): 272 µM

SMILES: O=P(O)(O)OC[C@H]1OC(O)[C@H](O)[C@@H]1O (stereo partly shown) [ribose-5-phosphate]
- Km ([7]; read-out: Kmb): 235 µM
- Km ([8]; read-out: Kmp): 5700 µM

SMILES: O=C(CO)[C@H](O)[C@H](O)COP(=O)(O)O [ribulose-5-phosphate]
- Km ([9]; read-out: Kms): 5970 µM
- Km ([8]; read-out: Kms): 2470 µM

SMILES: O=C(CO)[C@@H](O)[C@H](O)[C@H](O)[C@H](O)COP(=O)(O)O [sedoheptulose-7-phosphate]
- Km ([4]; read-out: Kmb): 786 µM
- Km ([7]; read-out: Kmq): 150 µM

SMILES: O=C(CO)[C@@H](O)[C@H](O)COP(=O)(O)O [xylulose-5-phosphate]
- Km ([3]; read-out: Kmb): 670 µM
- Km ([9]; read-out: Kmp): 7700 µM
- Km [10]: 6400 µM
